Experiments:
[1] = system: hepatitis B virus (HBV); experiment: Liver HBV DNA by quantitative PCR in HBV transgenic mice; assay type: in vivo; conditions: female HBV mice; 23.0 mg/(kg day), per os 14 days
[2] = system: hepatitis B virus (HBV); experiment: Liver HBV DNA by Southern blot hybridization in HBV transgenic mice; assay type: in vivo
Description: Animals. Homozygous adult female and male transgenic HBV mice were used (20.6±2.8 g). The mice were originally obtained from Dr. Frank Chisari (Scripps Research Institute, La Jolla, Calif.) (Guidotti L G, Matzke B, Schaller H & Chisari F V. High-level hepatitis B virus replication in transgenic mice. J Virol 1995; 69:6158-6169) and were subsequently raised in the Biosafety Level 3 (BL-3) area of the AAALAC-accredited USU Laboratory Animal Research Center (LARC). The animals were derived from founder 1.3.32 (Guidotti L G, Matzke B, Schaller H & Chisari F V. High-level hepatitis B virus replication in transgenic mice. J Virol 1995; 69:6158-6169). This study was conducted in accordance with the approval of the Institutional Animal Care and Use Committee of Utah State University.
(§1) Experimental design. DCP was administered per os, once daily for 14 days to randomly assigned HBV transgenic mice at 23, 7.3, and 2.3 mg/(kg d). ADV was used as a positive control at 10 mg/(kg d) using the same treatment schedule and vehicle (0.4% CMC). On day 14, mice were euthanized to collect serum and liver samples to perform liver HBV DNA, liver core and serum HBe assays, serum cytokine/chemokine profiles, and IDO metabolite assays.
Liver HBV DNA assays. Southern blot hybridization and quantitative PCR (qPCR) were performed on liver tissues (Morrey J D, Motter N E, Tam B, Lay M & Fairman J. Efficacy of cationic lipid-DNA complexes (CLDC) on hepatitis B virus in transgenic mice. Antiviral Res 2008; 79:71-79). For Southern blot hybridization, the ratio of the viral DNA bands to the transgene band was used to determine the concentration of viral DNA per host DNA. This calculation was based upon the knowledge that there were 1.3 copies of the transgene present per host cell with this line of transgenic mice. The transgene was used as an internal indicator to calculate the pg of HBV DNA per μg of homozygous cellular host DNA. For qPCR, the assay was run with a series of 10-fold dilutions of pooled liver DNA from HBV transgenic mice to obtain a standard curve. Mean C(t) values were obtained for duplicates of each sample. The mean C(t) values of each sample were used to obtain the log relative DNA values using a formula of the fit line of the standard curve.

[3] = system: HBe antigen; experiment: Sera HBeAg ELISA in HBV transgenic mice; assay type: in vivo; conditions: males
Protocol: as §1
Sera HBeAg. Whole blood samples were obtained during necropsy by cardiac puncture, and processed for an HBeAg-specific ELISA (International Immuno Diagnostics, Foster City Calif.) (Money J D, Motter N E, Taro B, Lay M & Fairman J. Efficacy of cationic lipid-DNA complexes (CLDC) on hepatitis B virus in transgenic mice. Antiviral Res 2008; 79:71-79). Using the known PEI (Paul Ehrlich Institute) units for the calibrator, PEI units were formulated for the serial dilutions of the positive serum. A graph was generated, and extrapolation was used to assign a PEI unit value for each sample.

[4] = system: indoleamine 2,3-dioxygenase (IDO); experiment: Plasma tryptophan and kynurenine by HPLC (IDO activity), 1st experiment; assay type: in vivo, athymic nude (nu/nu) mice; conditions: for Kynurenine / Tryptophan / Kyn/Trp: plasma; for Kynurenine / Tryptophan: HPLC; for Kyn/Trp: estimate of IDO activity
Protocol: Cytokine levels in EDTA plasma from the mice in the 1st experiment were determined by ELISA assay at Alta Analytical Laboratories (San Diego, Calif.) using a LINCOplex Kit (Linco Research). Tryptophan (Trp) and kynurenine (Kyn) concentrations were measured from EDTA plasma samples by high pressure liquid chromatography (HPLC) using 3-nitro-L-tyrosine as the internal standard (Widner et al., 1997). To estimate IDO activity, the kynurenine to tryptophan ratio (Kyn/Trp) was calculated and expressed as μmol kynurenine/mmol tryptophan (Wirleitner, 2003). The values from five mice in the 1st experiment are not included in the summary statistics given in Table 1 for the following reasons. One mouse from each of the four treatment groups was used to test the effects of mega dosing, i.e., with (1:4 mol:mol) calcium pterin at 100 mg/kg/day after Day 60 of treatment, and are excluded. Also excluded was one mouse from the (1:4 mol:mol) calcium pterin (7 mg/kg/day) group which expired suddenly a few days before blood was collected. Cytokine measurements <3.2 pg/ml are reported as n.d. (not detectable) because the standard curves used in the ELISA assays were not calibrated below that level.

[5] = system: spontaneous mammary gland tumors; conditions: C3H/HeN-MTV+ mice; Moheno, 2004; cited from earlier work

| Molecule | Log HBV DNA (PCR) versus controls [1] | Liver HBV DNA (Southern), Female levels (mean ± SEM) ([2]; 2.3 mg/(kg d)) [pg/µg] | Liver HBV DNA (Southern), Female levels (mean ± SEM) ([2]; 7.3 mg/(kg d)) [pg/µg] | Liver HBV DNA (Southern), Female levels (mean ± SEM) ([2]; 23.0 mg/(kg d)) [pg/µg] | Liver HBV DNA (Southern), Male levels (mean ± SEM) ([2]; 2.3 mg/(kg d)) [pg/µg] | Liver HBV DNA (Southern), Male levels (mean ± SEM) ([2]; 7.3 mg/(kg d)) [pg/µg] | Liver HBV DNA (Southern), Male levels (mean ± SEM) ([2]; 23.0 mg/(kg d)) [pg/µg] | HBe antigen (ELISA) versus controls ([3]; 2.3 mg/(kg day)) | HBe antigen (ELISA) versus controls ([3]; 7.3 mg/(kg day)) | Kynurenine ([4]; 7 mg/kg/day) [µM] | Tryptophan ([4]; 7 mg/kg/day) [µM] | Kyn/Trp ([4]; 7 mg/kg/day) [μmol/mmol] | Kynurenine ([4]; 21 mg/kg/day) [µM] | Tryptophan ([4]; 21 mg/kg/day) [µM] | Kyn/Trp ([4]; 21 mg/kg/day) [μmol/mmol] | plasma kynurenine response to dosage (ACIP model) ([4]; stepwise regression) | activity against spontaneous mammary gland tumors [5] |
| --- | --- | --- | --- | --- | --- | --- | --- | --- | --- | --- | --- | --- | --- | --- | --- | --- | --- |
| Nc1nc([O-])c2nccnc2n1.Nc1nc([O-])c2nccnc2n1.[Ca+2] [DCP, dipterinyl calcium pentahydrate] | significant treatment decreases | 12.7 ± 1.9 | 17.3 ± 3.5 | 10.6 ± 1.6 | 46.4 ± 10.8 | 50.4 ± 10.3 | 36.0 ± 10.6 | significant treatment increases | significant treatment increases | – | – | – | – | – | – | – | – |
| (1:4 mol:mol) calcium pterin [CaPterin] | – | – | – | – | – | – | – | – | – | 1.2 ± 0.2 | 87.9 ± 14.6 | 14.1 ± 0.2 | 1.8 ± 0.3 | 106.5 ± 7.8 | 17.5 ± 3.8 | increase | highly significant activity |

From patent US20120251495A1, “PTERIN BASED THERAPIES FOR INFLAMMATORY CONDITIONS” (priority 2008, published 2012)
